Measurements reported in US11332483B2, “Naphthoquinone containing gold carbene complexes and methods of uses thereof” (BOARD OF REGENTS, THE UNIVERSITY OF TEXAS SYSTEM, priority 2017, dated 2022).
Like-named read-outs stand apart in the source and are kept apart here.

Legend:
A549 lung cancer cells = test: Cell proliferation (MTT) assay in A549 lung cancer cells; format: cell-based, human
Protocol: (§1) Cells were harvested and seeded into 96-well culture plates (Costar 07-200-90) in 100 μL of culture media. They were allowed to incubate overnight at 37° C. in the presence of 5% CO2. A549 was seeded at a density of 1000 cells/well, A2780 at 2500 cells/well, A2780CP at 3000 cells/well, and PC-3 at 2000 cells/well. The next day, appropriate serial dilutions of drug stocks in culture media were made. To each well of a 96 well plate was added 100 μL of the appropriate solution. After a total of three days, a […] aliquot of 3 mg/mL tetrazolium dye, 344,5-dimethylthiazol-2-yl)-2,5-diphenyltetrazolium bromide (Alfa Aesar L11939) was added to each well, followed by a 4 hr incubation period at 37° C. The medium was then removed, the resulting formazan was dissolved in […] DMSO and the respective absorbances were measured at 560-650 nm using a microplate reader (Molecular Devices, Sunnyvale, Calif.). Absorbance values were corrected for background and then normalized to wells containing untreated cells to allow for plate-to-plate comparisons. The data are shown as mean inhibition of proliferation or growth as a percentage of control cells and are from 2-3 replicate experiments. Resulting dose response curves were subjected to linear regression analysis (Origin by OriginLab, Inc.) for determination of IC50 values.

[1] = test system: thioredoxin reductase (TrxR) in A549 cells; test: Lipoate reduction assay of thioredoxin reductase activity in live cells; format: cell-based, human
Protocol: To assess whether any or all of the present gold complexes could serve as TrxR inhibitors, standard tests involving the reduction of the oxidized form of the cell-permeable cofactor lipoate to its corresponding reduced form, dihydrolipoate, were carried out. […] [Cl] and 5 (cocktail), auranofin, and doxorubicin for 6 h. Post treatment, the live cells were monitored colorimetrically over 180 min for their ability to reduce lipoate (FIG. 5A).
Cells were harvested and seeded at a density of 10,000 cells/well A549 in 96-well culture plates. They were then incubated overnight at 37° C. and 5% CO2. The next day, appropriate serial dilutions of drug stock in culture media were performed, and 100 μL of the appropriate solution were added to each well. Cells were returned to the incubator for 6 h. Afterwards, the liquid was then removed from each well by vacuum aspiration and replaced by 100 μL of 5 mM lipoate (Tokyo Chemical Industry Co., Ltd. L0207) and 1 mM DTNB (Acros Organics 117540050) in HBSS (Life tech 14025-092). The absorbance of each well at […] was recorded immediately and once every 20 min for three h on a microplate reader (Molecular Devices, Sunnyvale, Calif.). Plates were covered with aluminum foil between readings.

zebrafish embryos/larvae = test system: zebrafish embryos/larvae
Protocol: First, zebrafish embryos were divided into 7 groups at an average of 65 embryos per group. […] Briefly, live human lung cancer cells (A549) were labeled with CM-DiI (red) and only live cells were transplanted via injection into the perivitelline space of 30 zebrafish embryos 24 hours post fertilization (hpf) (Sittaramane et al., 2015; Veinotte et al., 2014; Xie et al., 2015). Tumor inoculated zebrafish embryos were allowed to grow for one day till 48 hpf. This allows for establishment of the cancer cells in the host zebrafish embryos.
The embryonic development of zebrafish embryos was monitored at 48 hpf and 72 hpf to record the number of dead embryos.

A549 cells [2] = test: Detection of intracellular ROS by flow cytometry (CM-H2DCFDA); format: cell-based, human; settings: A549, 2.5 μM, 6 h incubation
Protocol: To establish whether or not the complexes of this disclosure would increase intracellular ROS levels, A549 cells were treated with each complex in a dose responsive manner.
Tumor cells (1×10^6) were plated in a 6-well plate overnight and then incubated with media containing various complexes described at concentrations of 0.625-2.5 μM. Control cells were treated with vehicle only. After a 6 h. incubation, the cells were washed with PBS, detached with 0.250 mL 1× trypsin, collected in a 15 mL conical tube, and pelleted by centrifugation (3 min @ 300 g) at 5° C. The resulting pellet was again washed 2× with cold PBS and pelleted at 5° C. […] The cells were then pelleted, washed with 2 mL PBS, and re-suspended in PBS containing 2 μg/mL propidium iodide (PI, Chemodex P0023) for a final cell concentration of 0.5×10^6 cells/mL. Control samples of unstained cells, cells stained with only CM-H2DCFDA, and cells stained with only PI were also prepared. Each sample was added to one well of a 96-well plate. Samples were then subjected to FACS analysis using a Millipore Guava easyCyte 8 and analyzed using the Guava inCyte software.

A549 cancer cells = settings: A549, 1.25 μM
Protocol: All cells were selectively stained for visualization of ROS accentuation (green, CM-H2DCFDA), mitochondria (red, Mitotracker Red), and nuclei (blue, Hoechst).
Cells were then incubated with 1.25 μM complex at 37° C. 4 h. Post incubation, the media was removed and cells were washed (2×) with PBS. Cells were then incubated with 1 μM CM-H2DCFDA (Lifetech C6827) in PBS at 37° C. for 15 min. The dye-PBS solution was removed and cells were washed with PBS (2×). To the cells was added a PBS solution containing 1 ug/mL Hoechst 33342 (Lifetech H1399) and 50 nM Mitotracker Red FM (Lifetech M22425) for 30 min at 37° C. After incubation, the dye-PBS solution was removed and cells were washed with PBS (2×). Cells were then imaged fluorescently on a Leica SP5 X White light laser confocal microscope. Images were taken with a 63×, NA 1.4 objective.

PC-3 prostate (p53 null) = test: Cell proliferation (MTT) assay in PC-3 prostate cells; format: cell-based; settings: Table 3; error is standard error of the mean
Protocol: Further anti-proliferation studies were carried out with complex 1 and its naphthoquinone component 4[H][Cl] using the following cell lines: A2780 ovarian (a wt-p53 cell line sensitive to platinum treatment), 2780CP ovarian (isogenic to A2780 but expressing multi-drug resistance (MDR)), and PC-3 prostate (p53 null) (Table 3).
as §1, with “The data are shown as mean inhibition of proliferation or growth as a percentage of control cells and are from 2-3 replicate experiments. Resulting dose response curves were subjected to linear regression analysis (Origin by OriginLab, Inc.) for determination of IC50 values.” left out

A549 cells [3] = settings: A549, 24 h
Protocol: Control cells were treated with vehicle only. At 24 h, the media was collected and the cells were washed with PBS. The PBS washing was collected and the attached cells were then subjected to 0.5× trypsin (diluted with PBS) for 2 min. All media and washings were collected, pelleted by centrifugation (3 min @ 300 g) and washed twice with cold PBS. […] After this, 100 μL of cell suspension was added to 1.5 mL centrifuge tubes, followed by 5 μL each of Annexin V-FITC and propidium iodide (PI, 50 μg/mL) solution. Control samples of unstained cells, cells stained with only Annexin V-FITC, and cells stained with only PI were also prepared. Samples were allowed to incubate in the dark for 15 min at ambient temperature. After incubation, each sample was diluted with 200 μL of Annexin V binding buffer, and the resulting 300 μL sample was added to one well of a 96-well plate. Samples were then subjected to FACS analysis using a Millipore Guava easyCyte 8 and analyzed using Guava inCyte software.

Compound: Cc1cc(C)c(-n2c3c([n+](-c4c(C)cc(C)cc4C)[c]2[Au-][c]2n(-c4c(C)cc(C)cc4C)c4c([n+]2-c2c(C)cc(C)cc2C)C(=O)c2ccccc2C4=O)C(=O)c2ccccc2C3=O)c(C)c1.[Cl][Ag-][Cl] [Compound 1, [Bis(1,3-dimesityl-4,5-naphthoquino-imidazol-2-ylidene)-gold(I)] [Silver(I)dichloride]]
- Fold Difference relative to 1 (A549 lung cancer cells; A549 IC50 relative to complex 1): 1
- IC50 (A549 lung cancer cells; A549 lung cancer cells, MTT, 72 h, read-out: IC50): 73 ± 16 nM
- IC50 (A549 lung cancer cells; Table 3, error is standard error of the mean, read-out: IC50 A549 Lung): 73 ± 16 nM
- TrxR activity by lipoate reduction, time and dose dependence ([1]; A549, in words): time (FIG. 12A) and dose (FIG. 12B) dependent inhibition of enzyme activity
- inhibition of TrxR (lipoate reduction) ([1]; A549, low concentrations (0.1-0.6 μM), 6 h): inhibition of TrxR was apparent
- toxic effect relative to vehicle (zebrafish embryos/larvae; 0.5 μM): no observable toxic effect
- lethality (zebrafish embryos/larvae; concentrations above 1 μM): 100%
- LD50 (zebrafish embryos/larvae; zebrafish embryos/larvae): 0.75 µM
- fluorescence associated cell population shift (intracellular ROS increase) (A549 cells [2]): 27 fold
- subcellular loci of ROS accentuation (A549 cancer cells): ROS accentuation is arising from mitochondria
- IC50 (PC-3 prostate (p53 null)): 96 ± 17 nM
- induction of apoptosis (annexin-V/PI) (A549 cells [3]): induces controlled cell death via an apoptotic mechanism
